# Measured values taken from paper PMC11233931, “Remodeling tumor‐associated macrophage for anti‐cancer effects by rational design of irreversible inhibition of mitogen‐activated protein kinase‐activated protein kinase 2” (MedComm, 2024).
# Read-outs that look alike come from different tables or passages of the source.
# Legend:
# Assay in all cases: Eurofins kinase selectivity profile against 380 other human recombinant kinases (Table S2)
# Format in all cases: biochemical
# [1] = target: T1, 380 human recombinant protein kinases (Homo sapiens, UniProt O00444); settings: Plk4(h), read-out: Inhibition rate
# T1 construct: purchased Eurofins (Celle Lévescault)
# T1 sequence (O00444 1-970): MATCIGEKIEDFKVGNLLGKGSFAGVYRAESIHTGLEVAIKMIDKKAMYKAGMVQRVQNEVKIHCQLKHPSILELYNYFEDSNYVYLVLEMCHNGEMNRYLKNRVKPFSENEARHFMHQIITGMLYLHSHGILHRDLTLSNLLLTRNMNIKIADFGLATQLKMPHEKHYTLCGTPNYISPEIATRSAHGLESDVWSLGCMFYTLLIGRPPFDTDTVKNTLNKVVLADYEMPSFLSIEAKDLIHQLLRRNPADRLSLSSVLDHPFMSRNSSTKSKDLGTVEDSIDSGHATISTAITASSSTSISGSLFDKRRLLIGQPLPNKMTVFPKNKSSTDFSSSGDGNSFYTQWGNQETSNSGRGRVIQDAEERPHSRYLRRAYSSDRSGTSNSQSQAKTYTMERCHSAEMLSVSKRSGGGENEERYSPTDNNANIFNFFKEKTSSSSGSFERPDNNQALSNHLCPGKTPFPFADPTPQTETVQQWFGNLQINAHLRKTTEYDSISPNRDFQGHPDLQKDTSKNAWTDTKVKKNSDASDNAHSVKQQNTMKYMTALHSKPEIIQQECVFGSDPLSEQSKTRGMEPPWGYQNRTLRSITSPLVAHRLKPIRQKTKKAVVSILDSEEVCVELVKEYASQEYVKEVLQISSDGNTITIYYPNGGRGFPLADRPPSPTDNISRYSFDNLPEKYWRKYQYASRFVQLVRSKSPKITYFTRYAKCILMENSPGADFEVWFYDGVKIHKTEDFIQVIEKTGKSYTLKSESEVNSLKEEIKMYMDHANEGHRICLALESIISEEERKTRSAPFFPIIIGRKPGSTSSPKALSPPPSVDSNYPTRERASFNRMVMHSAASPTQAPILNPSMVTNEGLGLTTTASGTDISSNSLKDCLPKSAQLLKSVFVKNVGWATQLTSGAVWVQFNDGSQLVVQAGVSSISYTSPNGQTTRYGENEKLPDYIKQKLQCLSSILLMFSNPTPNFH
# Method: (§1) Subsequently, to ascertain whether the high potency of compound 11 was specific for MK2, an additional 380 human recombinant protein kinases were screened.
# (§2) To assess the impact of various compounds on MK2 kinase activity, we utilized the ADP‐Glo Assay Kit (Promega) following the manufacturer's instructions. Luminescence measurements were taken using a SpectraMax Paradigm reader. The inhibition percentage was calculated using the following formula: ((specific signalDMSO control − specific signal inhibitor)/(specific signalDMSO control)) × 100%. The IC50 values were determined employing dose–response curve fitting via Prism (Graph Pad). Additionally, Eurofins company (Celle Lévescault) conducted the analysis on compound 11’s inhibitory activity against 380 other human recombinant kinases at various concentrations.
# [2] = target: T2, 380 human recombinant protein kinases (Homo sapiens, UniProt P29323); settings: EphB2(h), read-out: Inhibition rate
# T2 construct: purchased Eurofins (Celle Lévescault)
# T2 sequence (P29323 19-1055): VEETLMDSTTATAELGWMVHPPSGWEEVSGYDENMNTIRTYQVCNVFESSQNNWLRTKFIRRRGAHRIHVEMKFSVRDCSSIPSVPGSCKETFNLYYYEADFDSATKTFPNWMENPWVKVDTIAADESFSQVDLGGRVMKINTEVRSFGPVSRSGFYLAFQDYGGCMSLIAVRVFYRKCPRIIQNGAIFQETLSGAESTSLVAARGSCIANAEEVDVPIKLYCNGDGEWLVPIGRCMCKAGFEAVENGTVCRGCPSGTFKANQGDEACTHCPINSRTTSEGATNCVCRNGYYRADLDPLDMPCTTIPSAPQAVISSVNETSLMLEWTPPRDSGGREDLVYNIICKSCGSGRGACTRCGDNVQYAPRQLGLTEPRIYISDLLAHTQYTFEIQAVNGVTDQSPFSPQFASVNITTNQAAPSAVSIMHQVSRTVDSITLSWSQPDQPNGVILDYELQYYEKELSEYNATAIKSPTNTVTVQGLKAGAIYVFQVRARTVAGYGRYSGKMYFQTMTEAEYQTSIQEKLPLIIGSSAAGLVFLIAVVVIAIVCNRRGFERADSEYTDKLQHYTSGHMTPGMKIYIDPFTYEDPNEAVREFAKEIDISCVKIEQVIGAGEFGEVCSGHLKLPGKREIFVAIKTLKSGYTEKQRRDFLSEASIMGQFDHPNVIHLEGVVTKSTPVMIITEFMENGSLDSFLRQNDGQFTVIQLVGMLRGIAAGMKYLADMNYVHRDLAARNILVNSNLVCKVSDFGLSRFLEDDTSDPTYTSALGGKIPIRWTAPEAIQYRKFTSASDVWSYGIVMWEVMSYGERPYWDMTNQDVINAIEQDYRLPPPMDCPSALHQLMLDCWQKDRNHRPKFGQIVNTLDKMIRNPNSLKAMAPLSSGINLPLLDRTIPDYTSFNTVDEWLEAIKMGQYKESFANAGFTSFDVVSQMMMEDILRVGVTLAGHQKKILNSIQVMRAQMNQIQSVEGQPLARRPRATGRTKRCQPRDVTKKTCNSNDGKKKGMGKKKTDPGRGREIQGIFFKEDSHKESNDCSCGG
# Method: as §1, §2
# [3] = target: T3, 380 human recombinant protein kinases (Homo sapiens, UniProt P68400); settings: read-out: Inhibition rate; for inhibition at 0.01 µM: 10 nM; for inhibition at 0.1 µM: 100 nM; for inhibition at 1 µM: 1000 nM
# T3 construct: purchased Eurofins (Celle Lévescault)
# Method: as §1, §2
# T3 sequence (P68400 whole entry): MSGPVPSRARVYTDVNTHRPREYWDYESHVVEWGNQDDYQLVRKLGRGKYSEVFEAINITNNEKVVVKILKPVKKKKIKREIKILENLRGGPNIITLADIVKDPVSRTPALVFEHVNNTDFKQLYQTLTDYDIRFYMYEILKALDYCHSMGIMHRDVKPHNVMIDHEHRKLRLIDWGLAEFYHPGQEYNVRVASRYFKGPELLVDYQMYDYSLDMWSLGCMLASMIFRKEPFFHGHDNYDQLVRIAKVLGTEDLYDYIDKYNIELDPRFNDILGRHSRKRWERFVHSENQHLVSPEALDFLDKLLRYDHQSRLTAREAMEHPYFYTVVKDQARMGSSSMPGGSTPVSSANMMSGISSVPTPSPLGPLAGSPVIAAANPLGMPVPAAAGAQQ
smiles,measurement,setting,value
C=CC(=O)Nc1cc(-c2cc(-c3cc4c([nH]3)CCNC4=O)ccn2)ccc1OC(F)(F)F [compound 11],inhibition at 0.01 µM,[1]; 10 nM,9%
same,inhibition at 0.1 µM,[1]; 100 nM,4%
same,inhibition at 1 µM,[1]; 1000 nM,33%
same,inhibition at 0.01 µM,[2]; 10 nM,5%
same,inhibition at 0.1 µM,[2]; 100 nM,-2%
same,inhibition at 1 µM,[2]; 1000 nM,-14%
same,inhibition at 0.01 µM,[3]; CK2(h),-3%
same,inhibition at 0.1 µM,[3]; CK2(h),-1%
same,inhibition at 1 µM,[3]; CK2(h),0%
same,inhibition at 0.01 µM,[3]; CK2α1(h),-9%
same,inhibition at 0.1 µM,[3]; CK2α1(h),-2%
same,inhibition at 1 µM,[3]; CK2α1(h),9%
